Residue numbers refer to the chain shown, from its start. Like-named read-outs stand apart in the source and are kept apart here.

Assay [1] addresses T1, human 5-HT1A receptor (Homo sapiens, UniProt P08908).
T1 construct: host or cells: HEK293T
T1 sequence (P08908 1-422): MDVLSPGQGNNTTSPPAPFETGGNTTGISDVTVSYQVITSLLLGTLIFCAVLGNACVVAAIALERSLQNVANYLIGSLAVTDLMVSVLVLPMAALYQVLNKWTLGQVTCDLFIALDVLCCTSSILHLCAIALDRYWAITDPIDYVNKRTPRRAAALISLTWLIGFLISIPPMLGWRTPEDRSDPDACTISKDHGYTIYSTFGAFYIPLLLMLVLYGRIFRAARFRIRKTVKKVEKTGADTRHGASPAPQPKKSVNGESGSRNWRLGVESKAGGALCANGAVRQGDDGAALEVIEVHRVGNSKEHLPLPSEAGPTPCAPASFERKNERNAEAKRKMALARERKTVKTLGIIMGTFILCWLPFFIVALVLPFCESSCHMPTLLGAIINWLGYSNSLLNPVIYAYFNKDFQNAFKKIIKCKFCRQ
Kind of assay: Radioligand binding (saturation and competition), WT 5-HT1A.

For assay [2], the target named is T2, V3.33I 5-HT1A receptor (Homo sapiens, UniProt P08908, V117I).
T2 sequence (P08908 1-422 V117I): T1 sequence (P08908 1-422) with V117I
Nature of the assay: Radioligand binding, V3.33I 5-HT1A.
Experimental: (§4) 48 hours after transfection with the desired receptor construct, cells were isolated for saturation and competition binding assays as previously described.[47],[48],[57] Saturation and competition radioligand binding assays were conducted in an assay buffer consisting of 50 mM Tris HCl, 10 mM MgCl2, and 0.1 mM EDTA in filtered deionized water. […] Briefly, 5–10 μg of the receptor protein, as determined by a Thermo Fisher Pierce BCA protein assay kit, was incubated with 8 concentrations of radioligand in triplicate to determine total binding. […] Nonspecific binding was determined as above for saturation assays.
(§5) For radioligand binding data, nonspecific binding was subtracted from the total binding to get specific binding. Saturation binding data was fit to the “binding saturation-specific binding with hill slope” model. Competition binding data were fit to the “binding competition-one-site fit Ki” non-linear regression model and transformed to pKi values, reported as mean ± SD.
(§6) is 50 mM Tris HCl, 10 mM MgCl2 and 0.1 mM EDTA in filtered deionized water.

For assay [3], the target named is T3, N7.39T 5-HT1A receptor (Homo sapiens, UniProt P08908, N386T).
T3 sequence (P08908 1-422 N386T): T1 sequence (P08908 1-422) with N386T
Nature of the assay: Radioligand binding, N7.39T 5-HT1A.
Experimental: as §4, §5, §6

The target of assay [4] is T4, Y5.38A 5-HT1A receptor (Homo sapiens, UniProt P08908, Y195A).
T4 sequence (P08908 1-422 Y195A): T1 sequence (P08908 1-422) with Y195A
Kind of assay: Radioligand binding, Y5.38A 5-HT1A.
Experimental: as §4, §5, §6

Assay [5] deals with T2, V3.33I 5-HT1A receptor. Nature of the assay: cAMP accumulation in HEK293T cells, V3.33I 5-HT1A. Details: mutated in house (Quikchange II) HTR01A0000; host or cells: HEK293T. Particulars: point-mutated receptor, 3 independent experiments, read-out: pEC50 5-HT1A Receptor V3.33I (converted). In kind it is cell-based. How it is done:
(§1) Briefly, cells transfected with the desired receptor construct and compounds were incubated in the dark for 90 min at 37 °C. After incubation, cAMP detection reagents were added, and TR-FRET was used to quantify the cAMP produced.
(§2) The functional activity of compounds was determined by stimulating cells expressing the desired receptor with FSK and test compound in parallel with 12 known concentrations of cAMP. The known concentrations of cAMP were used to create a standard curve for each experiment that was used to interpolate the unknown values of cAMP in wells with test compounds. […] The EC50 and EMAX values were determined using the “dose response – log[agonist] vs response (three parameter)” nonlinear regression model in Prism and transformed to pEC50 values, reported as mean ± SD.
(§3) Summary of functional assay conditions at various 5-HT1 receptor point mutation constructs.

Assay [6] addresses T3, N7.39T 5-HT1A receptor. Nature of the assay: cAMP accumulation in HEK293T cells, N7.39T 5-HT1A. Particulars: point-mutated receptor, 3 independent experiments, read-out: pEC50 5-HT1A Receptor N7.39T (converted). In kind it is cell-based. Details: mutated in house (Quikchange II) HTR01A0000; host or cells: HEK293T. The method, then:
as §1, §2, §3
In general terms: Changes in cAMP serve as a functional read-out for many G protein-coupled receptors.

As for `CN(C)[C@H]1CCc2c(cccc2-c2cccc3ccccc23)C1` [(S)-NAP], the Ki in assay [1] (Affinity (pKi ± SD) 5-HT1A, WT receptor, [^3H]5-CT competition, mean ± SD) is 61.7 nM; in assay [2], 63.1 nM; in assay [3], 66.1 nM; in assay [4] it was 245 nM. Moreover, the EC50 in assay [5] is 355 nM; in assay [6] it was 347 nM.
Consider `Fc1ccccc1-c1cccc2c1CC[C@H](N1CCCC1)C2` [(S)-PFPT], for which the Ki in assay [1] (read-out: Affinity (pKi ± SD) 5-HT1A (converted)) was 1.26 nM; in assay [2], 8.13 nM; in assay [3] it was 8.51 nM; in assay [4], 0.955 nM. In addition, the EC50 is 10.5 nM in assay [5] and 25.1 nM in assay [6].

For the origin of these results see article PMC10797628.
